According to US20090312413A1, “Composition Comprising Tanshinone Compounds Isolated From The Extract Of Salviae Miltiorrhizae Radix For Treating Or Preventing Cognitive Dysfunction And The Use Thereof” (DIGITAL BIOTECH CO., LTD., priority 2005, published 2009):

Columns and labels:
[1] = system: HT 22 mouse neuronal cell line; experiment: Inhibition test of beta amyloid toxicity (MTT); type: cell-based; conditions: HT22 cells, 25 μM aggregated beta amyloid, 18 hours
Protocol: HT 22 mouse neuronal cell line was incubated in DMEM (Dulbecco's Modified Eagle's Medium, Gibco-BRL) medium supplemented with 10% FBS (Fetal Bovine Serum, Hyclone) and 1% penicillin/streptomycin (Sigma Co.) Prior to test, HT22 cell was incubated on 96 well plates with a density of 5×10^3 cell/well and further incubated in serum free DMEM medium for 1 hour before the treatment of test sample. Various concentration of diethyl ether extract prepared in Example 1 used as a test sample was added thereto and incubated for 1 hour. Aggregated beta amyloid (US peptide) was treated thereto to the concentration of 25 μM and incubated for 18 hours to induce cell necrosis. 5 mg/ml of MTT (3-(4,5-dimethyl-2-thiazolyl)-2,5-diphenyl-2H-tetrazolium bromide) solution was added each well with 15 μl/well and the well was incubated for 4 hours. Dissolving buffer solution (10% SDS, 50% dimethyl formamide, pH 4.7) was added to each well with 100 μl/well and reacted for overnight. 18 hours after the reaction, the absorbance of solution was determined by microplate reader (SAFIRE, TECAN) at 570 nm/630 nm wavelength (Gillardon, F. et al., Brain Research, 706(1) pp 169-172, 1996).

[2] = Oral administration toxicity test; type: in vivo; conditions: 2000 mg/kg
[3] = system: mice directly treated with beta amyloid; experiment: AD acute model, Y maze test; type: in vivo, mouse; conditions: 50 mg/kg oral, mice given beta amyloid intracerebro-ventricularly
Protocol: For passive avoidance test, male ICR mouse weighing 25 g purchased from Samtaco Co. was bred with five mice per cage and the cage was kept with following condition maintaining the temperature of 22±2° C. and the relative humidity of […] under the regularly controlled light/dark condition with an interval of 12 hours. Synthetic beta amyloid 1-42 (BACHEM) was dissolved in DMSO in order to be 250 μM solution and diluted with PBS to 10 nM and aggregated at 37° C. for four days (Passive Avoidance test) or six days (Y maze test). Aggregated beta amyloid 1-42 was administrated into the mice according to the procedure disclosed in the literature (Lausen & Belknap, J. Pharmacol. Methods, 16 pp 355-357, 1986). 50 μl of aggregated beta amyloid 1-42 was administrated into the 2.4 mm depth of bregma region with 50 μl of Hamilton micro-syringe equipped with 26-gauge needle. The behavior tests were divided into Y maze test and PA (passive avoidance) test after the beta amyloid administration. […] The entering order of mice in the pathway was observed and the entering latency time was determined when four limbs was entered within the pathway. To determine the spatial memory, the determined spontaneous alteration behavior was calculated by following empirical formula 1 and the actual alteration was assigned to one time at the time that mice was entered three pathways continuously. […]

[4] = system: mice administered aggregated beta amyloid 1-42; experiment: AD acute model, passive avoidance test; type: in vivo, mouse; conditions: oral, mice given beta amyloid, p<0.05
Protocol: For passive avoidance test, male ICR mouse weighing 25 g purchased from Samtaco Co. was bred with five mice per cage and the cage was kept with following condition maintaining the temperature of 22±2° C. and the relative humidity of […] under the regularly controlled light/dark condition with an interval of 12 hours.
Synthetic beta amyloid 1-42 (BACHEM) was dissolved in DMSO in order to be 250 μM solution and diluted with PBS to 10 nM and aggregated at 37° C. for four days (Passive Avoidance test) or six days (Y maze test).
Aggregated beta amyloid 1-42 was administrated into the mice according to the procedure disclosed in the literature (Lausen & Belknap, J. Pharmacol. Methods, 16 pp 355-357, 1986).
50 μl of aggregated beta amyloid 1-42 was administrated into the 2.4 mm depth of bregma region with 50 μl of Hamilton micro-syringe equipped with 26-gauge needle. The behavior tests were divided into Y maze test and PA (passive avoidance) test after the beta amyloid administration. Y maze test was performed 2 days after the administration and PA test was 3 days after the administration. Each test was done with more than 10 mice. […]
At 24 hours after the training session, the identical experiment was performed again with mouse to measure the latency time staying at the light chamber. […] Latency to enter the dark compartment from the light compartment was measured as a step through latency. […]

mouse brain = experiment: Brain staining of AD acute model (Cresyl violet, ChAT, GFAP); type: in vivo
Protocol: At the end of the experiment, the brain of animals was delivered and kept in 10% formalin solution to staining. At the end of behavior test, the mouse brain was delivered, kept in 10% formalin solution for 24 hours and transferred to 30% sucrose solution. After fixing the brain, the brain was performed to coronal section with a width of 40 μm using by cryostat. The sliced brain was performed to Cresyl violet staining to confirm the injury of brain neuronal cell, to ChAT staining to confirm the injury of cholinergic neuron and to GFAP staining to confirm the activation of astrocytes. After the tissue was placed on gelatin-coated slide to stain with Cresyl violet, the tissue was performed to dehydration using ethanol. The tissue was incubated for about 3 minutes and dipped into 0.5% Cresyl Violet solution for 30 mins. After the solution was performed to […] with ethanol, the slice was dipped into xylene for 3 minutes. The dried tissue was fixed with Canada balsam mounting medium. In the washing process between all the antibody incubation, PBST was used to washing tissues. To reduce the activity of endogenous peroxidase activity, the tissue was pretreated with 0.5% H2O2 and then treated with 5% FBS at room temperature for 1 hour to remove non-specific binding. The tissue was incubated at 4° C. for overnight using by mouse anti-GFAP (1:200) monoclonal antibody and goat-anti-ChAT (1:200) polyclonal antibody. A horse radish peroxidase-conjugated anti-mouse IgG and anti-goat IgG secondary antibody (1:600) was incubated at room temperature for 1 hour and detected by DAB kit after the incubation.

CC(C)C1=Cc2ccc3c(c2C(=O)C1=O)C=CCC3(C)C [1,2-Didehydromiltirone, 1,2-didehydromiltirone]
inhibitory effect on the toxicity of beta amyloid [1]: did not inhibit

Cc1coc2c1C(=O)C(=O)c1c-2ccc2c(C)cccc12 [tanshinone I]
inhibitory effect on the toxicity of beta amyloid [1]: did not show any inhibitory effect

Cc1cccc2c3c(ccc12)C1=C(C(=O)C3=O)[C@@H](C)CO1 [dihydrotanshinone I]
inhibitory effect on the toxicity of beta amyloid [1]: did not show any inhibitory effect

CC(C)C1=Cc2ccc3c(c2C(=O)C1=O)CCCC3(C)C [Miltirone]
inhibitory effect on the toxicity of beta amyloid [1]: did not inhibit

Cc1coc2c1C(=O)C(=O)c1c-2ccc2c1CCCC2(C)C [tanshinone IIA]
inhibitory effect on the toxicity of beta amyloid [1]: mere inhibitory effect
toxicity at oral administration test [2]: no toxicity
recovery of memory learning disorder (spontaneous alteration, Y maze) [3]: recovered
latency time (step through latency, passive avoidance) [4]: significantly increased
injury of cholinergic neuron caused by beta amyloid (mouse brain; ChAT staining): recovered the injury of cholinergic neuron
injury of memory learning correlated with hippocampus injury (brain staining) (mouse brain; Cresyl violet staining, mouse brain after beta amyloid): significantly recovered
activity of astrocyte caused by beta amyloid (mouse brain; GFAP staining): reduced the increased activity of astrocyte
